In brackets after ≈: the same amount, converted by molar mass.
System: Ceriodaphnia
Conditions: in vivo; for LC50 value: ceriodaphnia, 48 h

Structure (SMILES): CCOP(=S)(OCC)Oc1nc(Cl)c(Cl)cc1Cl [Chlorpyrifos, chlorpyrifos]
- LC50 value: 0.08 ng/mL (≈ 0.228 nM)
- Chlorpyrifos TUs: 2.2 TUs
- TUs by ELISA: 3.2 TUs
- actual toxicity due to the chemical (TUs): 0.5 TUs

Structure (SMILES): CCOP(=S)(OCC)Oc1cc(C)nc(C(C)C)n1 [Diazinon, diazinon]
- LC50 value: 0.38 ng/mL (≈ 1.25 nM)
- Diazinon TUs: 4.5 TUs
- TUs by ELISA: 1.9 TUs
- actual toxicity due to the chemical (TUs): 0.9 TUs

Structure (SMILES): CCCCOCCOCCOCc1cc2c(cc1CCC)OCO2 [PB, piperonyl butoxide]
- Actual Sample TUs / Sample TUs after treatment: ~ 1.0 TUs
- Residual TUs (after PB Treatment): 1.0 TUs

From patent US6017715A (priority 1996, dated 2000)
